Values of other authors as cited in patent US6689595B1, “Crystallization and structure determination of Staphylococcus aureus thymidylate kinase” (Pharmacia & Upjohn Company, priority 1999, dated 2004).

Biological target: E. coli TMK (Escherichia coli, UniProt P0A720)
Conditions: from A. Lavie et al. 1998

Chain of E. coli TMK (P0A720 whole entry): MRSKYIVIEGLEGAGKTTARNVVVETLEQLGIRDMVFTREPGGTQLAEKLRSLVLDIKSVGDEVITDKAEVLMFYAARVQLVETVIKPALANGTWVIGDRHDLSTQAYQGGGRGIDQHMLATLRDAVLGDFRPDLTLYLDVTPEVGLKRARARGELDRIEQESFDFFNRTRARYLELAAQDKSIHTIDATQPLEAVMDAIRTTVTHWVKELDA

Compound: Cc1cn([C@H]2C[C@H](O)[C@@H](COP(=O)(O)OP(=O)(O)OP(=O)(O)OP(=O)(O)OP(=O)(O)OC[C@H]3O[C@@H](n4cnc5c(N)ncnc54)[C@H](O)[C@@H]3O)O2)c(=O)[nH]c1=O [AP5T]
- Kd: 0.02 µM
